{"source": "patent US11446351B2", "about": "“Composition for treating one or more estrogen related diseases” (LIFEARC, priority 2018, dated 2022)", "type_in_all_cases": "in vivo, human", "key": {"women": {"test_system": "women", "experiment": "Phase I study (Example 2): bone marker deoxypyridinoline (DPD) in urine", "settings": "30 mg and 45 mg, days 1-64, FIG. 7", "description": "In order to evaluate the effect of the treatment with Teverelix TFA on the bone mineral density, two biochemical bone mineral markers was measured in the subjects. Telopeptides type I collagen, cross-linked, […] (CTX) was measured in serum of the treated subjects, and deoxypyridinoline (DPD) was measured in the subject's urine.\nSaid bone markers were measured on the following days in the test period: 1 (pre-dose), 15, 29, 43, 57, 64\nDPD is a dynamic biochemical marker of bone loss. An increase in DPD levels in an early morning urine specimen is a reliable indicator of increased bone loss. The CTX test measures for the presence and concentration of a crosslink peptide sequence of type I collagen, found, among other tissues, in bone. This specific peptide sequence relates to bone turnover because it is the portion that is cleaved by osteoclasts during bone resorption, and its serum levels are therefore proportional to osteoclastic activity at the time the blood sample is drawn.\nThe concentration of DPD and CTX test were carried out at MOS Pharma Services, Central Lab GmbH, Grossmoorbogen 25, 21079 Hamburg, Germany by means of highly sensitive and specific validated chemi-luminescent (CUA) and enzyme-linked immuno-sorbent (ELISA) methods. The results are shown in FIG. 7 and table 6 respectively."}, "healthy female subjects": {"test_system": "healthy female subjects", "experiment": "Phase I trial (Example 1): estradiol concentration in serum", "description": "(§1) The Teverelix TFA formulations were manufactured as followed. 0.8 ml or 0.6 ml 5% mannitol were added to the relevant dosage of 60 or 45 mg of the LHRH antagonist Teverelix® trifluoroacetate, respectively. The mixture was stirred using vortex during one minute providing two dosage formulations of Teverelix TFA in a flowing milky pearly microcrystalline aqueous suspensions. The suspensions are made of microcrystals of about 10 μm length. Corresponding placebo formulations, without Teverelix TFA was also prepared\n(§2) A phase I clinical trial with formulation A and B (and placebo) was conducted in order to evaluate the pharmacokinetics, pharmacodynamics, safety and tolerability of Teverelix TFA.\n(§3) The formulations were each injected subcutaneous (s.c.) as follows: • A single dosage of formulation A (60 mg Teverelix TFA) administered s.c. on day 3±1 of the menstrual cycle, to 8 healthy female subjects • A single dosage of formulation A placebo was administered s.c. to on day 3±1 of the menstrual cycle, to 4 healthy female subjects • Two dosages of formulation B (45 mg Teverelix TFA) administered s.c. to 8 healthy female subjects. The first dosage on day 3±1 of the menstrual cycle and a second dosage administered on day 10±1 of the menstrual cycle, and • two dosages of formulation B placebo was administered s.c. to 4 healthy female subjects. The first dosage on day 3±1 of the […] menstrual cycle and a second dosage administered on day 10±1 of the menstrual cycle.\nThe mean estradiol concentration in the respective subjects was measured. The results are shown in table 1 and 2, respectively and is depicted in FIG. 1 in relation to the placebo data."}, "[1]": {"experiment": "Phase I trial (Example 1): pharmacokinetics, total systemic exposure of Teverelix", "description": "as §1, §2, §3"}, "[2]": {"settings": "60 mg single s.c. (Treatment Group 1)"}, "[3]": {"settings": "2 × 45 mg s.c. (Treatment Group 2)"}}, "note": "Where a name gives a salt, the structure may show the parent alone. Where a SMILES comes first, the peptide text is derived from it. [ ]: non-standard residue; d: D form. dPhe(4-Cl) = N[C@H](Cc1ccc(Cl)cc1)C(=O)O; d2Nal = N[C@H](Cc1ccc2ccccc2c1)C(=O)O; d(hCit) = NC(=O)NCCCC[C@@H](N)C(=O)O; Lys(iPr) = CC(C)NCCCC[C@H](N)C(=O)O; d3Pal = N[C@H](Cc1cccnc1)C(=O)O", "data": [{"smiles": "CC(=O)N[C@H](Cc1ccc2ccccc2c1)C(=O)N[C@H](Cc1ccc(Cl)cc1)C(=O)N[C@H](Cc1cccnc1)C(=O)N[C@@H](CO)C(=O)N[C@@H](Cc1ccc(O)cc1)C(=O)N[C@H](CCCCNC(N)=O)C(=O)N[C@@H](CC(C)C)C(=O)N[C@@H](CCCCNC(C)C)C(=O)N1CCC[C@H]1C(=O)N[C@H](C)C(N)=O", "note": "[Teverelix TFA, N-Ac-d-Nal^1,d-pCl-Phe^2,d-Pal^3,d-(Hci)^6,Lys(iPr)^8,d-Ala^10 trifluoroacetate] (Ac-[d2Nal][dPhe(4-Cl)][d3Pal]SY[d(hCit)]L[Lys(iPr)]P[dA]-NH2; C-terminus assumed)", "values": [{"measurement": "alteration in bone marker urine DPD during the study", "setting": "women", "value": "no significant alteration"}, {"measurement": "time at which estradiol returned to near baseline and menses reoccurred in at least one subject", "setting": "healthy female subjects; 2 × 45 mg one week apart", "value": 1008, "unit": "h p.f.a"}, {"measurement": "estradiol mean (SD) concentration relative to baseline", "setting": "healthy female subjects; 2 × 45 mg, after first injection, 48 h p.f.a.", "value": "−14.56 (9.95) ng/L"}, {"measurement": "estradiol mean (SD) concentration relative to baseline", "setting": "healthy female subjects; 2 × 45 mg, after second injection, 312 h p.f.a.", "value": "−14.20 (10.85) ng/L"}, {"measurement": "estradiol concentrations when compared to placebo", "setting": "healthy female subjects; both doses (60 mg; 2 × 45 mg), FIG. 1", "value": "significantly reduced"}, {"measurement": "time at which estradiol returned to near baseline and menses reoccurred in at least one subject", "setting": "healthy female subjects; single 60 mg", "value": 840, "unit": "h p.f.a"}, {"measurement": "estradiol mean (SD) concentration relative to baseline", "setting": "healthy female subjects; single 60 mg, 264 h p.f.a", "value": "−31.22 (23.11) ng/L"}, {"measurement": "estradiol mean (SD) concentration relative to baseline", "setting": "healthy female subjects; single 60 mg, 456 h p.f.a", "value": "−1.04 (90.98) ng/L"}, {"measurement": "AUC(0−cq), Geometric Mean", "setting": "[1]; [2]", "value": 1.592, "unit": "µM·h"}, {"measurement": "AUC(0−t), Geometric Mean", "setting": "[1]; [2]", "value": 1.907, "unit": "µM·h"}, {"measurement": "CmaxInit1, Geometric Mean", "setting": "[1]; [2]", "value": 10.9, "unit": "nM"}, {"measurement": "CmaxLate, Geometric Mean", "setting": "[1]; [2]", "value": 2.63, "unit": "nM"}, {"measurement": "AUC(0−cq), Geometric Mean", "setting": "[1]; [3]", "value": 2.323, "unit": "µM·h"}, {"measurement": "AUC(0−t), Geometric Mean", "setting": "[1]; [3]", "value": 2.833, "unit": "µM·h"}, {"measurement": "CmaxInit1, Geometric Mean", "setting": "[1]; [3]", "value": 6.03, "unit": "nM"}, {"measurement": "CmaxInit2, Geometric Mean", "setting": "[1]; [3]", "value": 7.03, "unit": "nM"}, {"measurement": "CmaxLate, Geometric Mean", "setting": "[1]; [3]", "value": 3.63, "unit": "nM"}, {"measurement": "total systemic exposure, two injections of 45 mg one week apart compared with a single 60 mg injection", "setting": "[1]; s.c., healthy female subjects", "value": "approximately 1.5 fold"}]}]}
